Tests used:
Assay type in all cases: cell-based
[1] = test system: Staphylococcus aureus ATCC25923; assay: Bacteriolytic assay (time-kill kinetic method, OD600); details: Staphylococcus aureus ATCC25923 suspension, 2xMIC, after 240 min, compared to the 0 time value
Experimental: (§1) (1) Bacteriolytic Assay. […] Full growth of bacterium in MHB was diluted 100 times and incubated at 37°C to produce an OD600 of 0.8 as a starting inoculum. Sample solutions were added to the starting bacterial suspension to give a final concentration of 2xMIC and incubated at 37°C under agitation at 150 rpm. After the incubation period corresponding to 0, 15, 30, 60, 120, and 240 min, 100 μL was pipetted from each tube and the optical density was recorded at 600 nm using the Biobase UV-Vis spectrophotometer. Corresponding dilutions of test samples were used as blanks. Oxacillin was used as a positive control, and the tubes without an extract/compound served as negative controls. All the measurements were done in triplicate and repeated three times.

[2] = test system: Pseudomonas aeruginosa ATCC27853; assay: as above; details: Pseudomonas aeruginosa suspension, 2xMIC, after 240 min, compared to the 0 time value
Experimental: as §1

[3] = test system: tested bacteria and yeasts; assay: Broth microdilution MIC/MMC, summary over all strains; details: against specific microorganism; cutoff points of ref 33
In short: (§2)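 Twofold broth microdilution in MHB (bacteria) or SDB (yeasts), final range 2048–0.125 μg/mL. Inocula were 1 × 10^6 CFU/mL for bacteria, incubated at 37 °C for 24 h with shaking, and 1 × 10^5 spores/mL for yeasts (C. albicans 30 °C 48 h; C. neoformans 30 °C 72 h). MIC was the lowest concentration with no visible growth, in triplicate.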

[4] = test system: methicillin-resistant Staphylococcus aureus 03 (MRSA03); assay: Broth microdilution MIC/MMC
In short: as §2

Escherichia coli S2(1) = assay: Broth microdilution MIC/MMC
In short: as §2

[5] = test system: Staphylococcus aureus ATCC25923; assay: Broth microdilution MIC/MMC
In short: as §2

[6] = test system: methicillin-resistant Staphylococcus aureus 04 (MRSA04); assay: Broth microdilution MIC/MMC
In short: as §2

[7] = test system: Cryptococcus neoformans H99; assay: Broth microdilution MIC/MMC
In short: as §2

[8] = test system: Pseudomonas aeruginosa ATCC27853; assay: Broth microdilution MIC/MMC
In short: as §2

[9] = test system: Candida albicans ATCC10231; assay: Broth microdilution MIC/MMC
In short: as §2

catalase = assay: Catalase activity in treated bacterial cell lysates; details: Staphylococcus aureus ATCC25923 and MRSA03, MIC and 1/2xMIC, 24 h
Experimental: (3) Antioxidant Enzyme Activities. For evaluation of catalase and superoxide dismutase (SOD) activities, Staphylococcus aureus ATCC25923 and MRSA03 (1.5 × 10^8 CFU/mL, 500 μL) cultures from the late exponential growth phase were treated with MIC and 1/2xMIC of the methanol extract (500 μL), compound 5 (500 μL), and oxacillin (500 μL) solutions and incubated at 37°C for 24 h. The suspension was centrifuged at 3000 rpm for 5 min to separate the supernatant. The pellet was washed twice with PBS and resuspended in 500 μL of cell lysate buffer (1 mM EDTA, 10 Mm Tris-HCl, 0.1% Triton-X-100, and 150 mM NaCl) and incubated at 37°C for 1 h. Contents were then centrifuged at 3000 rpm for 5 min, and the supernatant was collected for enzyme activity assays.
Catalase activity. This was assessed by using a kit (Sigma, catalogue no. CAT100) with a cell lysate. Briefly, 750 μL of assay buffer (50 mM) was mixed with 25 μL of 50 mM H2O2 and 10 μL of cell lysate. […] The absorbance was monitored at 520 nm, and the catalase activity was calculated based on the following equation: [Δμ moles (H2O2) × d × 100)/V × t], where Δμ moles (H2O2) is the difference in amount of H2O2 added to the reaction mixture between blank and given samples, d is the dilution of the original sample for catalase reaction, V is the sample volume in catalase reaction, and t is the reaction duration (min).

[10] = Staphylococcus aureus ATCC25923
[11] = Pseudomonas aeruginosa ATCC27853

Q: How did the “decline in cell turbidity” value [1] turn out when “4,7,2′-trihydroxy-4′-methoxyisoflavanol [compound 5]” was run?
A: 99.87%

Q: What about the “decline in cell turbidity” value [2] of the same substance?
A: 99.85%

Q: What about the “antimicrobial activity class of pure compounds by cutoff points” value [3] of the same substance?
A: significant/moderate

Q: What about the MMC ([4]; MRSA03) of the same substance?
A: 32 µg/mL

Q: What about the MMC/MIC ([4]; MRSA03) of the same substance?
A: 2

Q: What about the MIC ([4]; MRSA03, 24 h, 37°C) of the same substance?
A: 16 µg/mL

Q: And the MMC (Escherichia coli S2(1))?
A: 16 µg/mL

Q: What about the MMC/MIC (Escherichia coli S2(1)) of the same substance?
A: 2

Q: What about the MIC (Escherichia coli S2(1); 24 h, 37°C) of the same substance?
A: 8 µg/mL

Q: What about the MMC [5, 10] of the same substance?
A: 8 µg/mL

Q: What about the MMC/MIC [5, 10] of the same substance?
A: 1

Q: And the MIC ([5]; Staphylococcus aureus ATCC25923, 24 h, 37°C)?
A: 8 µg/mL

Q: What about the MMC ([6]; MRSA04) of the same substance?
A: 16 µg/mL

Q: And the MMC/MIC ([6]; MRSA04)?
A: 1

Q: And the MIC ([6]; MRSA04, 24 h, 37°C)?
A: 16 µg/mL

Q: What about the MMC ([7]; Cryptococcus neoformans H99) of the same substance?
A: 8 µg/mL

Q: And the MMC/MIC ([7]; Cryptococcus neoformans H99)?
A: 1

Q: What about the MIC ([7]; Cryptococcus neoformans H99, 72 h, 30°C) of the same substance?
A: 8 µg/mL

Q: What about the MMC [8, 11] of the same substance?
A: 8 µg/mL

Q: And the MMC/MIC [8, 11]?
A: 1

Q: What about the MIC ([8]; Pseudomonas aeruginosa ATCC27853, 24 h, 37°C) of the same substance?
A: 8 µg/mL

Q: And the MMC ([9]; Candida albicans ATCC10231)?
A: 16 µg/mL

Q: What about the MMC/MIC ([9]; Candida albicans ATCC10231) of the same substance?
A: 2

Q: And the MIC ([9]; Candida albicans ATCC10231, 48 h, 30°C)?
A: 8 µg/mL

Q: What about the “catalase activity vs untreated cell lysates” value (catalase) of the same substance?
A: significant concentration-dependent decreases

From publication PMC8556085, “Antimicrobial and Antioxidant Secondary Metabolites from Trifolium baccarinii Chiov. (Fabaceae) and Their Mechanisms of Antibacterial Action” (BioMed Research International, 2021)
